# Laboratory results as given in patent US9814758B2, “Inhibitors of apoptosis and uses thereof” (CENTRE NATIONAL DE LA RECHERCHE SCIENTIFIQUE-CNRS, priority 2010, dated 2017).
# Non-standard residues stand in square brackets, D forms with d. Residues, ends and D or L forms follow the SMILES beside them. No end group written: not given here. Ahx = NCCCCCC(=O)O
# Legend:
# [1] = Stability in 20% mouse serum (reverse-phase HPLC); assay type: in vitro ADME; conditions: 37° C.; for remaining at 2 h: 2 h incubation, read-out: peptide still intact; for peptide degradation: after 24 hours
# Protocol: FIG. 3: Evaluation of Tat-DAXXp and Pip2b-DAXXp protease ability. (A) Stability measurements of Tat-DAXXp and Pip2b-DAXXp conjugates in fetal bovine serum (FBS, BioWest) and (B) freshly prepared mouse serum (MS). Peptides were incubated with 20% serum at 37° C. for 0 h, 1 h, 2 h, 4 h, 8 h, 24 h, and 48 h, and 50 μl of the incubation mixture was precipitated in 100 μl 10% dichloroacetic acid (DCA) in H2O/CH3CN (50/50). The samples were mixed and kept at −20° C. The precipitated serum proteins were separated by centrifugation (14,000 rpm, 10 minutes) and the supernatant was analyzed by reverse-phase HPLC (measurement of the peak area in mV*sec). n≧2 for each condition.
# [2] = test system: C57Bl6 mice, myocardial ischemia-reperfusion; test: Myocardial ischemia-reperfusion IR60' (40 min ischemia, 60 min reperfusion); assay type: in vivo, mouse
# Protocol: FIG. 11: In vivo experimental protocol. C57Bl6 mice underwent a surgical protocol of myocardial ischemia-reperfusion (IR). The black box represents the period of ischemia to which the mice were submitted. Infarct size or cell death measurements were performed at the end of surgery for each protocol (indicated by ↑). IR60′: 40 minutes of Ischemia, 60 minutes of Reperfusion. IR24h: 40 minutes Ischemia and 24 hours Reperfusion.
# FIG. 12: Cardioprotective effects of Tat-DAXXp (1 mg/kg—IV) in mice subjected to IR60′. Infarct size (in % of area at risk) and internucleosomal DNA fragmentation determined by ELISA were quantified in mice subjected to IR60′ and treated with Tat, Tat-DAXXp or Tat-scrDAXXp (1 mg/kg) as well as with DAXXp (10 mg/kg) (intravenous injection (IV) 5 minutes before reperfusion). Means±SEM were plotted for (A): Area at risk/LV mass (left ventricle), (B): Infarct size (in % of area at risk) and (C): (I/NI ratio) corresponding to the ratio of soluble nucleosome in the ischemic portion versus the non-ischemic portion of LV tissues. Statistical analysis was performed using One-way ANOVA with Neuman-Keuls post test for multiple comparisons (GraphPad Prism software). P<0.05, P<0.01 and P<0.001 versus Tat-DAXXp were noted *, **, and *** respectively. P=ns (not significant) for P>0.05.
# FIG. 13: Dose response for Tat-DAXXp and DAXXp in mice subjected to IR60′. Infarct size (in % of area at risk) and internucleosomal DNA fragmentation determined by ELISA were quantified in mice subjected to IR60′ and treated with Tat (1 mg/kg), Tat-DAXXp (0.1, 1 and 10 mg/kg) or DAXXp (0.1, 1 and 10 mg/kg) injected intravenously 5 minutes before reperfusion. Means±SEM were plotted for (A): Area at risk/LV mass (left ventricle), (B): Infarct size (in % of area at risk) and (C): (I/NI ratio) corresponding to the ratio of soluble nucleosome in the ischemic versus the non-ischemic portion of LV tissues.
# In a second step, the cardioprotective effects of DAXXp were evaluated in an in vivo model of myocardial ischemia-reperfusion. Acute myocardial ischemia and reperfusion were performed in C57Bl6 mice subjected to a surgical model of reversible coronary occlusion. Male mice (22-28 g) were anesthetized and ventilated via a tracheal intubation using a Harvard rodent respirator. Body temperature was maintained between 36.8° C. and 37.0° C. via a thermo-regulated surgical table. The chest was opened by left lateral thoracotomy and a reversible coronary artery snare occluder was placed around the left coronary artery. Mice were randomly allocated to two different surgical protocols of myocardial ischemia-reperfusion (FIG. 11). At the end of reperfusion, the artery was re-occluded and phtalocyanine blue dye was injected into the left ventricle cavity and allowed to perfuse the non-ischemic portions of the myocardium. To determine the effect of DAXXp on myocardial infarct size, peptides were administered intravenously (caudal vein) 5 minutes before reperfusion during the surgical protocol of ischemia-reperfusion. The control groups were treated with Tat or Pip2b peptide (for CPP alone). The dose of 1 mg/kg was chosen (μmolar range) and dose responses for 0.1 and 10 mg/kg were also tested.
# At the end of reperfusion, mice were re-anaesthetized, the coronary ligature definitively tightened, the blue dye injected and the harvested left ventricles were dedicated to infarct size (TTC method, Schwartz et al, J Thromb. Thromb., 2000; 10: 181-187) or DNA fragmentation measurements (Cell death detection ELISA^PLUS kit, Roche Diagnostics) in order to investigate the cardioprotective effects against ischemia-reperfusion injuries.
Compound,remaining at 2 h [1] [%],peptide degradation [1],"cardioprotection (infarct size, DNA fragmentation) ([2]; IR60', data not shown)","specific DNA fragmentation in left ventricles versus Tat-injected mice ([2]; 1 mg/kg IV, IR60')","decrease of infarct size versus Tat peptide alone ([2]; 1 mg/kg intravenously 5 min before reperfusion, after 1 hour-reperfusion, p<0.01) [%]","dose of maximal effect ([2]; dose response 0.1, 1 and 10 mg/kg IV, FIG. 13) [mg/kg]",decrease of infarct size ([2]; 10 mg/kg injected alone (without CPP))
"CC[C@H](C)[C@H](NC(=O)[C@H](Cc1c[nH]cn1)NC(=O)[C@@H](NC(=O)[C@H](CCCNC(=N)N)NC(=O)CCCCCNC(=O)[C@H](CCCNC(=N)N)NC(=O)[C@H](CCCNC(=N)N)NC(=O)CCCCCNC(=O)[C@H](CCCNC(=N)N)NC(=O)[C@H](CCCNC(=N)N)NC(=O)CCCCCNC(=O)[C@@H](N)CCCNC(=N)N)[C@@H](C)CC)C(=O)N[C@@H](CC(C)C)C(=O)N[C@@H](Cc1ccccc1)C(=O)N[C@@H](CCC(N)=O)C(=O)N[C@@H](CC(N)=O)C(=O)N[C@H](CCCNC(=N)N)C(=O)N[C@@H](CCCNC(=N)N)C(=O)N[C@@H](CCSC)C(=O)N[C@@H](CCCCN)C(=O)N[C@@H](Cc1c[nH]c2ccccc12)C(=O)N[C@@H](Cc1c[nH]cn1)C(=O)N[C@@H](CCCCN)C(=O)N[C@@H](CCCCN)C(=O)N[C@@H](CCCCN)C(=O)N[C@@H](CO)C(=O)N[C@@H](CCCNC(=N)N)C(=O)N[C@@H](CCCCN)C(=O)N[C@@H](CCC(=O)O)C(=O)N[C@@H](CCCCN)C(=O)N[C@@H](CCCCN)C(=O)N[C@@H](CCC(N)=O)C(=O)N[C@H](C(=O)NCC(=O)N[C@@H](CO)C(=O)NCC(=O)N1CCC[C@H]1C(=O)N[C@@H](CC(C)C)C(=O)NCC(N)=O)[C@@H](C)O [Pip2b-DAXXp, (RXR)3-IHILFQNrRMKWHK-KKSRKEKKQTGSGPLG-NH2] (H-R[Ahx]RR[Ahx]RR[Ahx]RIHILFQN[dR]RMKWHKKKSRKEKKQTGSGPLG-NH2; N-terminus assumed)",> 70,all the peptide are degraded,not observed,,,,
"GRKKRRQRRRPPQKKSRKEKKQTGSGPLG-NH2 [Tat-DAXXp, GRKKRRQRRRPPQ-KKSRKEKKQTGSGPLG-NH2]",> 70,all the peptide are degraded,,drastic decrease,53.4,1,
"KKSRKEKKQTGSGPLG-NH2 [DAXXp, KKSRKEKKQTGSGPLG-NH2]",,,,,,,to the same extent than Tat-DAXXp
